Test results reported in paper PMC8044163, “Vitamin D and lumisterol derivatives can act on liver X receptors (LXRs)” (Scientific Reports, 2021).

Tested on: murine dermal fibroblasts
Experiment: RNA-Seq of newborn murine dermal fibroblasts
Format: cell-based, mouse
Conditions: 10^−7 M, 24 h

C=C1/C(=C\C=C2/CCC[C@]3(C)[C@@H]([C@H](C)CCCC(C)(C)O)CC[C@@H]23)C[C@@H](O)C[C@@H]1O [1,25(OH)2D3, reference compound]
Adh7 expression level: 1.042
Aqp11 expression level: 0.9562
Arid3b expression level: 1.268
Bicd1 expression level: 0.7304
Btc expression level: 0.9514
Car9 expression level: 3.341
Cbs expression level: 0.4189
Ccl4 expression level: 0
Cd68 expression level: 5.274
Cd200 expression level: 0.3998
Cherp expression level: 35.1454
Clec2g expression level: 0
Cnnm4 expression level: 11.9457
Cox15 expression level: 15.3542
Cpa2 expression level: 0.3127
Ctrl expression level: 0.3422
Dcun1d1 expression level: 6.457
Defb42 expression level: 0.2302
Dtx1 expression level: 0.2518
Ehf expression level: 0.2831
Ercc2 expression level: 13.8618
Erh expression level: 2.728
Fmnl1 expression level: 0.04415
Gys2 expression level: 0
Hist1h2ab expression level: 1.144
Hist1h2bg expression level: 0.5636
Hist1h2bh expression level: 0
Hist1h4c expression level: 0
Isl1 expression level: 0.2249
Krt19 expression level: 14.9744
Larp1b expression level: 2.787
Lhx6 expression level: 3.883
Lsm5 expression level: 0.9896
M1ap expression level: 1.719
Med9os expression level: 0.7826
Nckipsd expression level: 15.4716
Nr3c2 expression level: 0.1558
Nr6a1 expression level: 0.3582
Ntrk3 expression level: 0
Parvg expression level: 0.1595
Pde4dip expression level: 20.1604
Psd4 expression level: 0.7259
Ptpa expression level: 235.847
Ptpn6 expression level: 2.532
Rnu3a expression level: 0
Rpph1 expression level: 0.655
Rsad1 expression level: 1.447
Saa1 expression level: 0.19
Samd12 expression level: 0.7427
Scn8a expression level: 0.3603
Sgca expression level: 0.3791
Slc15a4 expression level: 20.8062
Slc16a5 expression level: 0.1731
Snhg9 expression level: 3.721
St7 expression level: 31.903
Stmn1 expression level: 3.691
Susd1 expression level: 2.151
Syt8 expression level: 1.517
Syt12 expression level: 0.9903
Tldc2 expression level: 0.381
Tnnc2 expression level: 0
Unc5c expression level: 0.3264
Wdr17 expression level: 0.7213
Zbtb18 expression level: 5.623
Zfp618 expression level: 1.668
number of genes downregulated, FC ≥ 2: 566
number of genes upregulated, FC ≥ 2: 601
number of genes solely downregulated (FC ≥ 2): 159 (15%)
number of genes solely upregulated (FC ≥ 2): 322 (21.4%)
